Where “and” joins values, the source holds several entries; their conditions need not be identical. Equal entries are not always repeated.
Tests used:
Type in all cases: physicochemical
[1] = Relative humidity (RH) stressing of Form II
Source text: In some embodiments, a composition comprising morphic Form II of the present disclosure converts to a hydrate Form (e.g., Form H) if stored under relative humidity (RH) of 40% or more. In some embodiments, a composition comprising morphic Form II of the present disclosure partially converts to morphic Form H if stored under relative humidity of equal to or more than 40% for several days. […] A complete conversion of a composition comprising the morphic Form II of the present disclosure occurs at about equal to or more than 80% RH, about equal to or more than 81% RH, about equal to or more than 82% RH, about equal to or more than 83% RH, about equal to or more than 84% RH, about equal to or more than 85% RH, about equal to or more than 86% RH, about equal to or more than 87% RH, about equal to or more than 88% RH, about equal to or more than 89% RH over between 5-20 days (e.g., 5 days, 6 days, 7 days, 8 days, 9 days, 10 days, 11 days, 12 days, 13 days, 14 days, 15 days, 16 days, 17 days, 18 days, 19 days, 20 days).
The present disclosure provides that exposure of Form II to higher humidity is sufficient for conversion to the hydrate form.

[2] = Stable form screening slurries and interconversion studies; conditions: for Form recovered from slurries: seeded with Form I, about two weeks
Method: In order to aid in the design of solid form screening experiments, solubility estimates were completed in various solvent systems using Form II at ambient and elevated temperature. […] Slurries were set up in a variety of solvent systems to determine the stable form and the potential of Compound 1 to form stable solvates. The slurries were prepared using Form II and each was seeded with Form I. Each of the slurries was stirred for about two weeks and most of the slurries were run at room temperature although a few were run at sub-ambient and elevated temperatures (˜45° C.). […] A few samples did show a minor amount of Form I in Form II likely due to poor conversion kinetics due to limited solubility. […] Interconversion studies starting with a mixture of Form I and Form II were also run in methanol at room temperature and ˜45° C.

[3] = Estimated solubility by aliquot addition of solvent, visual inspection; conditions: for solubility: thermodynamic from solid
Method: The present disclosure provides morphic Form II with low solubility in methanol. The solubility may be estimated based on the total volume of solvent needed to provide complete dissolution. The actual solubility may be greater than the value calculated due to the incremental addition of solvent and kinetics of dissolution of the material. […] Solubility Determination: Aliquots of test solvents or solvent mixtures were added to weighed samples of Compound 1. Samples were sonicated as needed between additions to facilitate dissolution. Complete dissolution of the test material in each solvent was determined by visual inspection. The solubility was estimated based on the total volume of solvent needed to provide complete dissolution. The actual solubility may be greater than the value calculated due to the incremental addition of solvent and kinetics of dissolution of the material. […] See Table 2 and discussion under “Solubility” section in the “Detailed Description” of the present disclosure.

[4] = Methanol solubility and metastable zone (MSZ), Crystal16; conditions: for Cloud Point 2: 0.03 C./min cooling rate; for Cloud Point 1: 0.5° C./min cooling rate
Method: MSZW is a nucleation kinetic-limited parameter that is highly dependent on process condition. Many factors may influence the value of MSZW, e.g., rate of cooling, agitation, the presence of foreign particles and impurities. MSZW decreases as stirrer speed increases; MSZW widens at N>400 rpm; and MSZW widens as cooling rate rises. In one embodiment, large differences in the metastable zone are observed for both Form II and Form I between the rapid cooling rate of about 0.5° C./min and a very slow cooling rate of about 0.03° C./min. In another embodiment, narrow metastable cooling rates are observed at higher concentrations (e.g., about 100 mg/mL).

[5] = Slurry conversion of Form II to Form H in methanol:water, seeded with Form H; conditions: for Results (form recovered from slurry): stirred 7-9 days
Method: The present disclosure provides that an anhydrous form (e.g. Form II) is produced without forming a hydrate form (e.g., Form H) during the crystallization process, by determining the critical water concentration below which the anhydrous form is the stable form. The critical water concentration is determined by varying the methanol-water concentrations in the slurries.
In another embodiment, at concentrations of 97:3 methanol:water and greater, Form H was recovered from the slurries. These embodiments provide that the critical water concentration for forming Form II is between 1 and 3% water. In some embodiments, water in the initial methanol solvent is not accounted for, which results in slightly higher final water concentration than 1 and 3%. In additional embodiments, experiments, by varying the methanol-water concentrations in the slurries, is carried out at room temperature or at about 45° C. In one embodiment, the critical water concentration is less than 5% at room temperature and less than 10% at about 45° C. Mixtures of Form II and Form H are observed to convert to either Form II or Form H in methanol depending on the exact water content. The present disclosure provides that during crystallization of Form II, critical water activity remains very low up to about 45° C. and that water content in the final methanol recrystallization is a critical process parameter to control to avoid operating in conditions which favors formation of Form H.

[6] = Weight increase upon increasing relative humidity; conditions: upon increasing relative humidity from 5.0% to 95.0%
Source text: In another embodiment of the invention, provided herein is Form II characterized as a solid form of Compound 1, such that the solid form undergoes a weight increase of less than 1.5% upon increasing relative humidity from 5.0% to 95.0%.

[7] = Particle size analysis (PSA), Malvern Mastersizer 2000
Source text: Particle size data was acquired using a Malvern Instruments Mastersizer 2000 equipped with a Hydro2000 μP dispersion unit. Data was collected and analyzed using Mastersizer 2000 software (v. 5.60) using volume based measurements. NIST-traceable glass beads were used to qualify the instrument.

[8] = crystallized from methanol ~10 vols, seed ~0.5% Form II at ~58° C.
[9] = crystallized from methanol ~10 vols, seed ~3% Form II
[10] = 10% of total volume of particles no larger than the indicated size
[11] = 50% of total volume of particles no larger than the indicated size
[12] = 90% of total volume of particles no larger than the indicated size

CCCCCCCCCCCCCCCCOCCCOP(=O)(O)CO[C@H](CO)Cn1ccc(N)nc1=O [Form II, phosphonic acid, [[(S)-2-(4-amino-2-oxo-1(2H)-pyrimidinyl)-1-(hydroxymethyl)ethoxy]methyl]mono[3-(hexadecyloxy)propyl] ester]
Conversion to hydrate form on RH exposure ([1]; about 43% RH for about 12 days): partially converts to a hydrate form
Conversion from Form II to Form H on RH exposure ([1]; about 43 to about 85% RH for about 12 days): minor conversion from Form II to Form H
Conversion from Form II to Form H on RH exposure ([1]; about 85% RH): complete conversion of Form II to Form H
Form recovered from slurries ([2]; anhydrous solvent systems, mostly room temperature): Form II was recovered
Form recovered from slurries ([2]; aqueous solvent systems): converted to the hydrated form, Form H
Solids recovered from interconversion studies ([2]; starting with a mixture of Form I and Form II, methanol, room temperature and ~45° C.): consistent with Form II
Solubility in various solvent systems ([3]; ambient and elevated temperature, each of the solvents tested): poor solubility
solubility ([3]; aqueous with cosolvent or surfactant or cyclodextrin, Methanol:Water 1:1, RT, estimated): < 3000 µg/mL
solubility ([3]; aqueous with cosolvent or surfactant or cyclodextrin, Methanol:Water 1:1, ~63 °C, estimated): < 14000 µg/mL
solubility ([3]; organic solvent or mixture, Trifluoroethanol, estimate): > 5000 µg/mL
Solubility in methanol compared to Form I [4]: Lower solubility
Clear Point ([4]; 20.3 mg/mL): 53.6 °C
Cloud Point 2 ([4]; 20.3 mg/mL): 38.2 °C
Cloud Point 1 ([4]; 20.3 mg/mL): 37.6 °C
Clear Point ([4]; 29.4 mg/mL): 56.2 °C
Cloud Point 2 ([4]; 29.4 mg/mL): 44.6 °C
Cloud Point 1 ([4]; 29.4 mg/mL): 45.1 °C
Clear Point ([4]; 38.9 mg/mL): 58.1 °C
Cloud Point 2 ([4]; 38.9 mg/mL): 51.1 °C
Cloud Point 1 ([4]; 38.9 mg/mL): 45.1 °C
Clear Point ([4]; 50.5 mg/mL): 60.2 °C
Cloud Point 2 ([4]; 50.5 mg/mL): 56.6 °C
Cloud Point 1 ([4]; 50.5 mg/mL): 51.0 °C
Clear Point ([4]; 64.3 mg/mL): 60.5 °C
Cloud Point 2 ([4]; 64.3 mg/mL): 58.8 °C
Cloud Point 1 ([4]; 64.3 mg/mL): 48.5 °C
Clear Point ([4]; 80.4 mg/mL): 61.2 °C
Cloud Point 2 ([4]; 80.4 mg/mL): 57.9 °C
Cloud Point 1 ([4]; 80.4 mg/mL): 49.7 °C
Clear Point ([4]; 95.6 mg/mL): 61.9 °C
Cloud Point 2 ([4]; 95.6 mg/mL): 59.9 °C
Cloud Point 1 ([4]; 95.6 mg/mL): 58.1 °C
Clear Point ([4]; 166.6 mg/mL): 63.1 °C
Cloud Point 2 ([4]; 166.6 mg/mL): 61.1 °C
Cloud Point 1 ([4]; 166.6 mg/mL): 58.1 °C
Results (form recovered from slurry) ([5]; Methanol:water (80:20), ~44-45 °C): Form H
Results (form recovered from slurry) ([5]; Methanol:water (85:15), ~44-45 °C): Form H
Results (form recovered from slurry) ([5]; Methanol:water (90:10), RT): Form H
Results (form recovered from slurry) ([5]; Methanol:water (90:10), ~44-45 °C): Form H
Results (form recovered from slurry) ([5]; Methanol:water (93:7), RT): Form H
Results (form recovered from slurry) ([5]; Methanol:water (93:7), ~2-8 °C): Form H
Results (form recovered from slurry) ([5]; Methanol:water (95:5), RT): Form H
Results (form recovered from slurry) ([5]; Methanol:water (95:5), ~2-8 °C): Form H
Results (form recovered from slurry) ([5]; Methanol:water (95:5), ~44-45 °C): Form II +
Results (form recovered from slurry) ([5]; Methanol:water (97:3), RT): Form II +
Results (form recovered from slurry) ([5]; Methanol:water (97:3), ~2-8 °C): Form H
Results (form recovered from slurry) ([5]; Methanol:water (99:1), ~2-8 °C): Form II
critical water concentration ([5]; about 45° C. slurries in methanol:water): less than 10%
critical water concentration ([5]; room temperature slurries in methanol:water): less than 5%
weight increase [6]: less than 1.5%
particle size distribution, volume weighted mean ([7]; FIG. 5): 25.663
d10 [7, 8]: d10 = 17.8 μm
d50 [7, 8]: 69.6 μm;
d90 [7, 8]: d90 = 160.9 μm
d10 [7, 9]: d10 = 9.8 μm
d50 [7, 9]: 34.4 μm;
d90 [7, 9]: d90 = 101.7 μm

CCCCCCCCCCCCCCCCOCCCOP(=O)(O)CO[C@H](CO)Cn1ccc(N)nc1=O [Sample 4]
d10 [7, 10]: 17.410 μm
d50 [7, 11]: 85.440 μm
d90 [7, 12]: 199.029 μm

CCCCCCCCCCCCCCCCOCCCOP(=O)(O)CO[C@H](CO)Cn1ccc(N)nc1=O [Sample 1]
d10 [7, 10]: 19.297 μm
d50 [7, 11]: 81.603 μm
d90 [7, 12]: 168.698 μm

CCCCCCCCCCCCCCCCOCCCOP(=O)(O)CO[C@H](CO)Cn1ccc(N)nc1=O [Sample 3]
d10 [7, 10]: 19.896 μm
d50 [7, 11]: 101.748 μm and 101.745 μm
